Measurements as given in PMC12188386, “Selective CBP/EP300 Bromodomain Inhibitors: Novel Epigenetic Tools to Counter TNF-α-Driven Inflammation” (JACS Au, 2025).

Legend:
[1] = system: panel of 32 bromodomains; experiment: bromoMAX BROMOscan panel; format: binding; conditions: 1 µM
Procedure: was used as the calibration curve. To obtain saturated solutions of the compounds of interest, in duplicates 4.4 µL of a 10 or 5 mM stock in DMSO was added to 436 µL Buffer (PBS, pH = 7.4), to give a final concentration of 100 or 50 µM. Samples were incubated on a shaker (500 rpm) at 37°C for 90 minutes and then filtered (Millex-GV 13 mm, 0.22 µm). 304 µL of the filtrate was mixed with 76 µL of acetonitrile on a dilution plate, from which 350 µL was transferred to a UV-plate and UV-absorption was read using a SpectraMax M5 (Molecular devices). The absorbance was blank-corrected and compared to the calibration curve to […]
solubility. […]
lower solubility (2) compounds respectively in a 12.5 w/v% CAPTISOL® solution in water. […] Based on the known density of 12.5 % CAPTISOL® solution (d = 1.05755 g/mL at 25 °C), the precise weight of the resulting solution and so the required amount of water by weight was calculated. […] In duplicates, aliquots of the filtrates were taken and diluted with blank 12.5 % CAPTISOL® water solution in either a 1:14 (higher sol. compounds) or 1:7 (lower sol. compounds) ratio, 350 µL was transferred to a 96-Well Plate (Greiner, UV-star) then UV absorption (240-400 nm, 10 nm steps) was measured using a SpectraMax M5 (Molecular devices). […] The calculated concentrations are available in Table S4. […]
The bromodomain concentration in the eluates was measured by qPCR. […]

[2] = system: MRC5 cells; experiment: viability assay (resazurin); format: cell-based; conditions: three-day treatment, concentration resulting in 70 % viability
Procedure: MRC5 (2x10^3 cells/well) or THP-1 (8x10^3 cells/well) cells were plated onto 96 well plates and treated with compounds at a final DMSO concentration of 0.5 % (MRC5) or 0.1 % (THP-1).
After 3 days of treatment, resazurin (Acros Organics) was added at a final concentration of 86 μ and incu ated for 2h15 (MRC5) or 3 h (THP-1). Fluorescence (ex. 560 nm, em. 590 nm) was read using a SpectraMax M5 (Molecular devices). GI30 values were calculated as the compound concentration resulting in 70 % viability compared to DMSO treated controls using a nonlinear regression fit using GraphPad Prism with the following equation: (Y=Bottom + (100-Bottom)/(1+(IC50/X)^HillSlope)). […]
After 1.5 h, mice were injected with 10 µL of the prepared CAPTISOL […]
foodpad and also intraperitoneally (for i.p. injection, the 10 µL of CAPTISOL solution was diluted to a final volume of 100 µL using PBS). Organs were collected 5 h after TNF-α […]
LEGENDPlexTM assays (Mouse Pro-inflammatory Chemokine Panel and Mouse Inflammation Panel; Biolegend) were performed to monitor cytokine/chemokine expression. Briefly, popliteal LNs were collected and carefully disrupted in […] ice-cold phosphate buffer, minimizing cell rupture. The suspension was centrifuged at 1,500 rpm for 5 min, and the […]

## Cc1cc2c(NC(=O)c3cc(NC(=O)c4ccco4)cc(-c4ccn(C)n4)c3)cccc2nn1 [Compound 2]
[1]
  selectivity over BRD4(1) and a broader panel of BRD-containing proteins: highly selective
[2]
  GI30: > 10 µM

## Cc1cc2c(NC(=O)c3cc(NC(=O)[C@H]4CCCO4)cc(-c4ccn(C)n4)c3)cccc2nn1 [Compound 5]
[1]
  selectivity over BRD4(1) and a broader panel of BRD-containing proteins: highly selective
[2]
  GI30: > 10 µM
